Like-named read-outs stand apart in the source and are kept apart here.
Key:
human TLR7 = molecular target: T1, human TLR7 (Homo sapiens, UniProt Q9NYK1); experiment: HEK293-Blue-hTLR-7 cells assay (SEAP reporter, NF-κB activation); assay type: cell-based; conditions: for EC50: HEK293-Blue-hTLR-7 cells, 20 hrs incubation, SEAP reporter; for Ratio (EC50(prodrug)/EC50(active form)): calculated ratio of prodrug EC50 to EC50 of corresponding active form
T1 sequence (Q9NYK1 27-1049): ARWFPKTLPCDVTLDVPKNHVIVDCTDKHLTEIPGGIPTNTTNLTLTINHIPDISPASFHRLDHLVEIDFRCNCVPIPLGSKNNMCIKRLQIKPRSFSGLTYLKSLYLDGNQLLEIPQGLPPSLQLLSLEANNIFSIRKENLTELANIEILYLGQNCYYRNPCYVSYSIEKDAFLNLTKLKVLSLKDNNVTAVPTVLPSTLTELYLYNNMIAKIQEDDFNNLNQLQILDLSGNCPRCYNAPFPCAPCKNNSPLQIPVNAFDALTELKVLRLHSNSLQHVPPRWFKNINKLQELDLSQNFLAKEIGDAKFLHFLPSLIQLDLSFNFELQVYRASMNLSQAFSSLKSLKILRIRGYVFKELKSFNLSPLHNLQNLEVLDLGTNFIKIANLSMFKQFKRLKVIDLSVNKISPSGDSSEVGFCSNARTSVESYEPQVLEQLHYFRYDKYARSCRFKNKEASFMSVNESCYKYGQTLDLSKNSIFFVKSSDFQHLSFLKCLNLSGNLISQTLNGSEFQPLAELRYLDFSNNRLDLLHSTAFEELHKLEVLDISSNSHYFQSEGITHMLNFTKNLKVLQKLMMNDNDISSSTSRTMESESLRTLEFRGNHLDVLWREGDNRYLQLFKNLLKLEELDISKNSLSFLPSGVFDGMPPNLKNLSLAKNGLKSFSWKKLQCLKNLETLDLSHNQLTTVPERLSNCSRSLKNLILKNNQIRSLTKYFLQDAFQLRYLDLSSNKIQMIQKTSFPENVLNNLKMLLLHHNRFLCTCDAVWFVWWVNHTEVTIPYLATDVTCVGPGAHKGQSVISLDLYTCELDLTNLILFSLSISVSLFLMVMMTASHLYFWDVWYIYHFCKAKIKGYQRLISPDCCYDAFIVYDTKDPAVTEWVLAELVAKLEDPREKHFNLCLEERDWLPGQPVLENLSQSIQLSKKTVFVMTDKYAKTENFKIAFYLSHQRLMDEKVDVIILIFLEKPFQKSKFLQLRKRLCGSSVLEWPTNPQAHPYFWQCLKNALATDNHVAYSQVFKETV
Description: HEK293-Blue-hTLR-7 Cells Assay
A stable HEK293-Blue-hTLR-7 cell line was purchased from InvivoGen (Cat. #: hkb-ht1r7, San Diego, Calif., USA). These cells were designed for studying the stimulation of human TLR7 by monitoring the activation of NF-κB. A SEAP (secreted embryonic alkaline phosphatase) reporter gene was placed under the control of the IFN-β minimal promoter fused to five NF-κB and AP-1-binding sites. The SEAP was induced by activating NF-κB and AP-1 via stimulating HEK-Blue hTLR7 cells with TLR7 ligands. Therefore the reporter expression was regulated by the NF-κB promoter upon stimulation of human TLR7 for 20 hrs. The cell culture supernatant SEAP reporter activity was determined using QUANTI-Blue™ kit (Cat. #: rep-qb1, Invivogen, San Diego, Calif., USA) at a wavelength of 640 nm, a detection medium that turns purple or blue in the presence of alkaline phosphatase.
HEK293-Blue-hTLR7 cells were incubated at a density of 250,000˜450,000 cells/mL in a volume of 180 μL in a 96-well plate in Dulbecco's Modified Eagle's medium (DMEM) containing 4.5 g/L glucose, 50 U/mL penicillin, […], […], 2 mM L-glutamine, 10% (V/V) heat-inactivated fetal bovine serum for 24 hrs. Then the HEK293-Blue-hTLR-7 cells were incubated with addition of 20 μL test compound in a serial dilution in the presence of final DMSO at 1% and perform incubation under 37° C. in a CO2 incubator for 20 hrs. Then 20 μL of the supernatant from each well was incubated with 180 μL Quanti-blue substrate solution at 37° C. for 2 hrs and the absorbance was read at 620˜655 nm using a spectrophotometer. The signalling pathway that TLR7 activation leads to downstream NF-κB activation has been widely accepted, and therefore similar reporter assay was also widely used for evaluating TLR7 agonist (Tsuneyasu Kaisho and Takashi Tanaka, Trends in Immunology, Volume 29, Issue 7, July 2008, […]; Hiroaki Hemmi et al, Nature Immunology 3, 196-200 (2002)).
The Compounds and Examples of the present invention were tested in HEK293-hTLR-7 assay for their TLR7 agonism activity as described herein and results are listed in Table 1. […] The calculated ratio of EC50(prodrug)/EC50(active form) were within the range from 27.7 to about 8233.

[1] = Single dose PK study in Male Wister-Han Rats; assay type: in vivo
Description: Single dose PK study in Male Wister-Han Rats The single dose PK in Male Wister-Han Rats was performed to assess pharmacokinetic properties of tested compounds. Two groups of animals were dosed via Gavage (POE) of the respective compound. Blood samples (approximately 20 μL) were collected via Jugular vein or an alternate site at 15 min, 30 min, 1 h, 2 h, 4 h, 7 h and 24 h post-dose groups. Blood samples were placed into tubes containing EDTA-K2 anticoagulant and centrifuged at 5000 rpm for 6 min at 4° C. to separate plasma from the samples. After centrifugation, the resulting plasma was transferred to clean tubes for bioanalysis of both prodrug and active form on LC/MS/MS. In the groups that prodrugs were dosed, the concentration of prodrugs in the plasma samples was under the detection limit. The “tested compound” in Table 3 was used as the internal standard for testing the metabolite (active form) of “dose compound” in vivo. The pharmacokinetic parameters were calculated using non-compartmental module of WinNonlin® Professional 6.2. The peak concentration (Cmax) was recorded directly from experimental observations. The area under the plasma concentration-time curve ([…]) was calculated using the linear trapezoidal rule up to the last detectable concentration. Cmax and AUC0-last are two critical PK parameters related to the in vivo efficacy of the tested compound. […]

[2] = prodrug, read-out: HEK293-hTLR-7 EC50 (Prodrug)
[3] = corresponding active form, read-out: HEK293-hTLR-7 EC50 (Active form)

For `CCCN(C)C(=O)n1c(=O)n(Cc2ccc(Cl)cc2)c2nc(S(=O)(=O)CC)nc(N)c21` [Example 8, 6-Amino-9-[(4-chlorophenyl)methyl]-2-ethylsulfonyl-N-methyl-8-oxo-N-propyl-purine-7-carboxamide], the EC50 (human TLR7; [2]) was 14.9 µM, the “Ratio (EC50(prodrug)/EC50(active form))” value (human TLR7) was 179.5 and the “AUC0-last folds increase comparing with Compound 8a” value ([1]; oral administration, rats, prodrug versus active form) was 14.5 folds.
In the case of `CCN(C)C(=O)n1c(=O)n(Cc2ccc(C)cc2)c2nc(S(=O)(=O)CC)nc(N)c21` [Example 16, 6-Amino-N-ethyl-2-ethylsulfonyl-N-methyl-8-oxo-9-(p-tolylmethyl)purine-7-carboxamide], the EC50 (human TLR7; [2]) is reported as 43.9 µM and the “Ratio (EC50(prodrug)/EC50(active form))” value (human TLR7) is reported as 445.9.
For `CCS(=O)(=O)c1nc(N)c2[nH]c(=O)n(Cc3ccc(Cl)cc3)c2n1` [Compound 8a, 6-amino-9-[(4-chlorophenyl)methyl]-2-ethylsulfonyl-7H-purin-8-one], the EC50 (human TLR7; [3]) was 0.083 µM and the “Cmax (nM)” value ([1]; 5 mg/kg oral dosing, male Wister-Han rats, plasma, tested compound Compound 8a (active form)) was “Not detected”.
In the case of `CCN(C)C(=O)n1c(=O)n(Cc2ccccc2)c2nc(S(=O)(=O)CC)nc(N)c21` [Example 3, 6-Amino-9-benzyl-N-ethyl-2-ethylsulfonyl-N-methyl-8-oxo-purine-7-carboxamide], the EC50 (human TLR7; [2]) is reported as 104 µM and the “Ratio (EC50(prodrug)/EC50(active form))” value (human TLR7) is reported as 614.1.
In the case of `CCS(=O)(=O)c1nc(N)c2[nH]c(=O)n(Cc3ccccc3)c2n1` [Compound 3a, 6-amino-9-benzyl-2-ethylsulfonyl-7H-purin-8-one], the EC50 (human TLR7; [3]) is reported as 0.17 µM.
In the case of `CCCN(C)C(=O)n1c(=O)n(Cc2ccc(F)cc2)c2nc(S(=O)(=O)CC)nc(N)c21` [Example 18, 6-Amino-2-ethylsulfonyl-9-[(4-fluorophenyl)methyl]-N-methyl-8-oxo-N-propyl-purine-7-carboxamide], the EC50 (human TLR7; [2]) is reported as 2.4 µM and the “Ratio (EC50(prodrug)/EC50(active form))” value (human TLR7) is reported as 40.
In the case of `CCCN(C)C(=O)n1c(=O)n(Cc2ccccc2)c2nc(S(=O)(=O)CCC)nc(N)c21` [Example 2, 6-Amino-9-benzyl-N-methyl-8-oxo-N-propyl-2-propylsulfonyl-purine-7-carboxamide], the EC50 (human TLR7; [2]) is reported as 6.5 µM and the “Ratio (EC50(prodrug)/EC50(active form))” value (human TLR7) is reported as 86.7.
Work on `CCS(=O)(=O)c1nc(N)c2[nH]c(=O)n(Cc3ccc(F)cc3)c2n1` [Compound 18a, 6-Amino-2-ethylsulfonyl-9-[(4-fluorophenyl)methyl]-7H-purin-8-one] yielded an EC50 (human TLR7; [3]) of 0.06 µM.

— patent publication US11220502B2, “Sulfone compounds and derivatives for the treatment and prophylaxis of virus infection” (Hoffmann-La Roche Inc., priority 2018, dated 2022)
